According to patent US10183015B2, “Heterocyclic compounds and methods of use” (Medivation Technologies LLC, priority 2015, dated 2019):
“And” between values parts separate entries of the source, which are not always exact repeats. Identical values can stand only once.

Legend:
Assay type in all cases: in vivo
[1] = tested on: INSIG1; assay: Short-term Paigen-diet NASH mouse model: hepatic INSIG1 gene expression (RT-qPCR); conditions: liver, 21 days; for DDct: INSIG1 Dct relative to vehicle mean; for Dct: INSIG1 minus 18S; for 2DDct: INSIG1 relative expression to vehicle group, normalized to 18S; for INSIG1: raw RT-qPCR value
Experimental: (§1) To investigate whether Compound #37 prevents the development of pathology associated with NASH and steatosis in an acute exploratory disease model, a study was conducted using a diet-induced acute liver steatosis model in mice. As described below, in this study, C57BL/6J mice were initiated on the Paigen diet and simultaneously treated with Compound #37 (5, 20, and 40 mg/kg/day) or vehicle control (20% HPβCD 10 mL/kg/day) by oral gavage for 21 days.
(§2) After acclimation, 8-week old male C57Bl/6J mice (Charles River) weighing about 25 g were randomized in 4 groups according their body weight and treated once daily around noon by oral gavage with vehicle, or Compound #37 at various for 21 days as follows: Group 1: vehicle-20% (2-hydroxypropyl)-β-cyclodextrin (HP-β-CD) (n=10); Group 2: Compound #37, 5 mg/kg (n=10) Group 3: Compound #37, 20 mg/kg (n=10) Group 4: Compound #37, 40 mg/kg (n=10). During the treatment period, body weight and food intake (measured over 24h) were measured 3 times per week and once a week, respectively. During the acclimation, all mice were fed a standard diet (Special Diets Services RM1 (E), product no. 801492) and tap water ad libitum. After the acclimation period, mice were fed until the end of the experiment with a 60% high fat Paigen diet (60 kcal % fat, 1.25% cholesterol, and 0.5% cholate; D11061901, Research Diet) and tap water ad libitum.
(§3) Gene expression analysis. Hepatic expression levels of genes involved in lipid metabolism (FAS, SREBP1, ACC1, SCD1), cholesterol metabolism (HMG-CoAR, LDLR), SREBP proteolysis (SCAP, INSIG1), ER stress (PERK), oxidative stress (NRF2), inflammation (MCP-1), and fibrosis (collagen 1α1) were quantified by RTqPCR. Expression level was normalized to 18S gene expression and relative expression to vehicle group was calculated with the […] method.

[2] = tested on: ACC1; assay: Short-term Paigen-diet NASH mouse model: hepatic ACC1 gene expression (RT-qPCR); conditions: liver, 21 days; for DDct: ACC1 Dct relative to vehicle mean; for Dct: ACC1 minus 18S; for 2DDct: ACC1 relative expression to vehicle group, normalized to 18S; for ACC1: raw RT-qPCR value
Experimental: as §1, §2, §3

[3] = tested on: MCP-1; assay: DIN mouse model: hepatic MCP-1 gene expression; conditions: liver, 20 mg/kg group
Experimental: as §3
Male C57Bl/6J mice (8 weeks old) were housed in enriched ventilated cages (31×12.5×12.7 cm) throughout the experimental phase. Animals' cages litters were changed at least once a week. Animal were housed 5 per cage on inverted 12-hour light cycle (at 09:00 am lights off), 22±2° C. and 55±10% relative humidity. The acclimation period was 20 days. During the acclimation period, all mice were fed a standard diet (RM1 (E) 801492, SDS) and tap water ad libitum. After the acclimation period, mice were fed with the DIN diet (60% fat, cholesterol enriched) and fructose-enriched tap water ad libitum until the end of the experiment.
At 6 weeks of diet, mice were 4-hour fasted (09:00 am to 1:00 pm) and blood (150 μl/EDTA) was collected at 01:00 pm by retro-orbital bleeding under isoflurane anesthesia. Mice were then allocated in 2 homogenous groups (n=12/group) according to their plasma levels of ALT (average levels: 685U/L), AST (average levels: 627U/L) and HOMA-IR index (average value: 4.7), into 2 homogenous groups (see values at day 0 in Tables 15A and 15B ALT/AST and Tables 16A and 16B for HOMA-IR). Mice were then treated once daily by oral gavage with vehicle (Group 1) or Compound #37 at 20 mg/kg (Group 2) for 70 days.
Hepatic expression levels of genes involved in lipid (FAS, SREBP1, ACC1, SCD1), cholesterol metabolism (HMG-CoAR, LDLR), in SREBP proteolysis (SCAP, INSIG1), in ER stress (PERK), oxidative stress (NRF2), and inflammation (MCP-1) were not changed. However, expression of collagen 1α1, involved in liver fibrosis, was reduced by 66% in mice treated with Compound #37 (p<0.05 vs. vehicle).

[4] = tested on: PERK; assay: Short-term Paigen-diet NASH mouse model: hepatic PERK gene expression (RT-qPCR); conditions: 21 days
Experimental: as §1, §2, §3

[5] = tested on: IL-6; assay: Short-term Paigen-diet NASH mouse model: liver IL-6 levels
Experimental: To investigate whether Compound #37 prevents the development of pathology associated with NASH and steatosis in an acute exploratory disease model, a study was conducted using a diet-induced acute liver steatosis model in mice. […]
as §2
The 60% high fat Paigen diet induced accumulation of liver lipids, inflammation, oxidative stress, and then fibrosis.

[6] = Compound #37 5 mg/kg, group mean, n=10
[7] = Compound #37 5 mg/kg, individual animals, 5 mg/kg
[8] = Compound #37 20 mg/kg, group mean, n=6
[9] = Compound #37 20 mg/kg, individual animals, 20 mg/kg
[10] = Compound #37 5 mg/kg, group mean, n=8
[11] = individual animals, vs vehicle mean, 20 mg/kg

Compound: CC(C)Cc1cc(-c2nc(-c3ccc(NS(=O)(=O)C(F)(F)F)cc3Cl)cs2)ccn1 [Compound 37, N-(3-chloro-4-(2-(2-isobutylpyridin-4-yl)thiazol-4-yl)phenyl)-1,1,1-trifluoromethanesulfonamide]
- DDct [1, 6]: 0.28
- DDct [1, 7]: −0.58 and 0.21 and 0.48 and −0.03 and 0.34 and 1.45 and 0.09 and 0.52 and 0.32 and 0.05
- DDct [1, 8]: 0.15
- DDct [1, 9]: 0.5 and 0.75 and 0.51 and −0.67 and 0.62 and −0.76
- Dct [1, 6]: 12
- Dct [1, 7]: 11.1 and 11.89 and 12.16 and 11.65 and 12.02 and 13.13 and 11.77 and 12.2 and 12 and 11.73
- Dct [1, 8]: 11.8
- Dct [1, 9]: 12.18 and 12.43 and 12.19 and 11.01 and 12.3 and 10.92
- 2DDct [1, 6]: 0.87
- 2DDct [1, 7]: 1.5 and 0.87 and 0.72 and 1.02 and 0.79 and 0.37 and 0.94 and 0.7 and 0.8 and 0.97
- 2DDct [1, 8]: 0.99
- 2DDct [1, 9]: 0.71 and 0.6 and 0.7 and 1.6 and 0.65 and 1.7
- INSIG1 [1, 6]: 24.2
- INSIG1 [1, 7]: 24.56 and 25 (2×) and 23.77 and 24.05 and 26.48 and 23.37 and 23.99 and 23.14 and 22.85
- INSIG1 [1, 8]: 24
- INSIG1 [1, 9]: 25.09 and 24.72 and 24.39 and 24.04 and 23.79 and 22.18
- DDct [2, 10]: 0.81
- DDct [2, 7]: 1.08 and 0.78 and 1.88 and 3.12 and −0.53 and −0.87 and 1.01 and 0.01
- DDct [2, 8]: 2.71
- DDct [2, 9]: 0.6 and 7.15 and 3.66 and 0.46 and 3.91 and 0.45
- Dct [2, 10]: 18.7
- Dct [2, 7]: 19 and 18.7 and 19.8 and 21.04 and 17.39 and 17.05 and 18.93 and 17.93
- Dct [2, 8]: 20.6
- Dct [2, 9]: 18.52 and 25.07 and 21.58 and 18.38 and 21.83 and 18.37
- 2DDct [2, 10]: 0.78
- 2DDct [2, 7]: 0.47 and 0.58 and 0.27 and 0.12 and 1.44 and 1.83 and 0.5 and 0.99
- 2DDct [2, 8]: 0.38
- 2DDct [2, 9]: 0.66 and 0.01 and 0.08 and 0.73 (2×) and 0.07
- ACC1 [2, 10]: 30.9
- ACC1 [2, 7]: 32.46 and 31.81 and 31.41 and 34.39 and 28.99 and 28.84 and 30.07 and 29.05
- ACC1 [2, 8]: 32.8
- ACC1 [2, 9]: 31.43 and 37.36 and 33.78 and 31.41 and 33.32 and 29.63
- MCP-1 Dct ([3]; individual animals, normalised to 18S, 20 mg/kg): 14.34 and 13.63 and 15.61 and 13.59 and 13.54 and 13.66 and 14.89 and 16.32 and 15.5 and 15.74 and 11.79
- MCP-1 2^DDct [3, 11]: 0.61 and 0.99 and 0.25 and 1.02 and 1.06 and 0.97 and 0.41 and 0.15 and 0.27 and 0.23 and 3.55
- MCP-1 DDct [3, 11]: 0.72 and 0.01 and 1.99 and −0.03 and −0.08 and 0.04 and 1.27 and 2.7 and 1.88 and 2.12 and −1.83
- MCP-1 (Ct) ([3]; individual animals, 20 mg/kg): 26.89 and 26.18 and 28.45 and 26.02 and 25.89 and 26.25 and 26.62 and 28.83 and 27 and 27.29 and 24.14
- MCP-1 2^DDct ([3]; mean, n 11): 0.87
- MCP-1 (Ct) ([3]; mean, n 11): 26.7
- MCP-1 DDct ([3]; mean, n 11): 0.80
- MCP-1 Dct ([3]; mean, n 11): 14.4
- ER and oxidative stress gene expression PERK: 2DDct ([4]; 5 mg/kg, group mean, n 10): 0.91
- ER and oxidative stress gene expression PERK: 18S ([4]; 5 mg/kg, group mean, n 10): 12.3
- ER and oxidative stress gene expression PERK: DDct ([4]; 5 mg/kg, group mean, n 10): 0.32
- ER and oxidative stress gene expression PERK: Dct ([4]; 5 mg/kg, group mean, n 10): 15.4
- ER and oxidative stress gene expression PERK: PERK ([4]; 5 mg/kg, group mean, n 10): 27.6
- ER and oxidative stress gene expression PERK: 2DDct ([4]; 5 mg/kg, individual animals): 1.29 and 0.54 and 0.35 and 1.5 and 0.42 and 0.58 and 1.06 and 1.56 and 0.97 and 0.79
- ER and oxidative stress gene expression PERK: 18S ([4]; 5 mg/kg, individual animals): 13.46 and 13.11 and 11.61 and 13.35 (2×) and 12.03 and 11.6 and 11.79 and 11.14 and 11.12
- ER and oxidative stress gene expression PERK: DDct ([4]; 5 mg/kg, individual animals): −0.36 and 0.9 and 1.52 and −0.58 and 1.24 and 0.8 and −0.08 and −0.64 and 0.04 and 0.34
- ER and oxidative stress gene expression PERK: Dct ([4]; 5 mg/kg, individual animals): 14.68 and 15.94 and 16.56 and 14.46 and 16.28 and 15.84 and 14.96 and 14.4 and 15.08 and 15.38
- ER and oxidative stress gene expression PERK: PERK ([4]; 5 mg/kg, individual animals): 28.14 and 29.05 and 28.17 and 27.81 and 28.31 and 29.19 and 26.56 and 26.19 and 26.22 and 26.5
- ER and oxidative stress gene expression PERK: 2DDct ([4]; 20 mg/kg, group mean, n 6): 1.33
- ER and oxidative stress gene expression PERK: 18S ([4]; 20 mg/kg, group mean, n 6): 12.2
- ER and oxidative stress gene expression PERK: DDct ([4]; 20 mg/kg, group mean, n 6): −0.27
- ER and oxidative stress gene expression PERK: Dct ([4]; 20 mg/kg, group mean, n 6): 14.8
- ER and oxidative stress gene expression PERK: PERK ([4]; 20 mg/kg, group mean, n 6): 27
- ER and oxidative stress gene expression PERK: 2DDct ([4]; 20 mg/kg, individual animals): 1.04 and 1.05 and 1.27 and 2.68 and 0.61 and 1.34
- ER and oxidative stress gene expression PERK: 18S ([4]; 20 mg/kg, individual animals): 12.91 and 12.29 and 12.2 and 13.03 and 11.49 and 11.26
- ER and oxidative stress gene expression PERK: DDct ([4]; 20 mg/kg, individual animals): −0.05 and −0.07 and −0.34 and −1.42 and 0.72 and −0.42
- ER and oxidative stress gene expression PERK: Dct ([4]; 20 mg/kg, individual animals): 14.99 and 14.97 and 14.7 and 13.62 and 15.76 and 14.62
- ER and oxidative stress gene expression PERK: PERK ([4]; 20 mg/kg, individual animals): 27.9 and 27.26 and 26.9 and 26.65 and 27.25 and 25.88
- IL-6 (pg/mg tissue) ([5]; 5 mg/kg, 21 days, group mean): 1012 pg/mg tissue
- IL-6 (pg/mg tissue) ([5]; 5 mg/kg, 21 days, individual animals): 1444 pg/mg tissue and 845 pg/mg tissue and 1107 pg/mg tissue and 650 pg/mg tissue and 1305 pg/mg tissue and 957 pg/mg tissue and 770 pg/mg tissue and 1296 pg/mg tissue and 883 pg/mg tissue and 863 pg/mg tissue
- IL-6 (pg/mg tissue) ([5]; 20 mg/kg, 21 days, group mean): 817 pg/mg tissue
- IL-6 (pg/mg tissue) ([5]; 20 mg/kg, 21 days, individual animals): 904 pg/mg tissue and 737 pg/mg tissue and 760 pg/mg tissue and 705 pg/mg tissue and 970 pg/mg tissue and 826 pg/mg tissue
- IL-6 (pg/mg tissue) ([5]; 40 mg/kg, 9 days, group mean): 669 pg/mg tissue
- IL-6 (pg/mg tissue) ([5]; 40 mg/kg, 9 days, individual animals): 1005 pg/mg tissue and 569 pg/mg tissue and 535 pg/mg tissue and 566 pg/mg tissue
